Data on 17 compounds can be found in patent US20250382296A1, “NITROGEN-CONTAINING FUSED THREE RING PRMT5 INHIBITOR, AND PREPARATION METHOD THEREFOR AND PHARMACEUTICAL USE THEREOF” (Abbisko Therapeutics Co., Ltd., priority 2022, published 2025).

Assay [1] has as its system HCT 116 wild-type MTAP cells. Briefly: Inhibition of proliferation of HCT116 wild-type MTAP cells (CellTiter-Glo, 6 days). To be noted: Homo sapiens, HCT-116, 144 h. In kind it is cell-based. Here is the method: (§1) 1. HCT 116 MTAP-knockout cells and HCT 116 wild-type MTAP cells were plated in 96-well flat-bottom plates and cultured overnight at 37° C. and […] in McCoy's 5A medium containing 10% fetal bovine serum+1% penicillin-streptomycin.
(§2) 2. The next day, compounds were each dissolved in DMSO, diluted successively with DMSO and medium and then transferred to cell plates; the final concentration of each compound was 10 μM, 4-fold dilution was performed to obtain 9 concentration points, and a DMSO control was provided.
(§3) 3. Cells not treated with compound were subjected to CellTiter-Glo Luminescent Cell Viability Assay (Promega) to detect the cell viability, and reference was made to the kit instructions for the operation; the plates were then placed on an EnVision Multilabel Reader to detect luminescence signals.
(§4) 4. Meanwhile, the cell plates containing cells treated with compounds were cultured continuously at 37° C. and […] CO2 for 6 days.
(§5) 5. Then, the cell viability was also detected by CellTiter-Glo.
(§6) 6. Finally, dose response curves were plotted using the four parameter dose response curve module of GraphPad Prism v 9.2.0 software and proliferation inhibition IC50 (unit: nM) was calculated.
A general note: ATP-based viability assays read luminescence as a measure of living cells.

Assay [2] has as its system HCT 116 MTAP-knockout cells. In words: Inhibition of proliferation of HCT116 MTAP-knockout cells (CellTiter-Glo, 6 days). To be noted: for IC50: Homo sapiens, HCT-116, 144 h, proliferation inhibition, HCT116 MTAP-knockout, 6 days, CellTiter-Glo; for Selectivity: IC50 HCT116 wild-type cells / IC50 HCT116 MTAP-knockout cells. In kind it is cell-based, human. Here is the method: as §1, §2, §3, §4, §5, §6

`Cn1cc(N(Cc2ccc(C(F)(F)F)cn2)C(=O)c2ccc3nc(N)c4cncn4c3c2)cn1` [Example 149, 4-amino-N-(1-methyl-1H-pyrazol-4-yl)-N-((5-(trifluoromethyl)pyridin-2-yl)methyl)imidazo[1,5-a]quinoxaline-8-carboxamide] displayed an IC50 in assay [1] of 7210 nM. In addition, in assay [2], the IC50 is 50 nM and the Selectivity is given as 144.1.
Compound `CCC(C1CC1)N(Cc1ccc(C(F)(F)F)cn1)C(=O)c1ccc2nc(N)c3cncn3c2c1` (stereo not drawn) [Example 154, 4-amino-N-(1-cyclopropylpropyl)-N-((5-(trifluoromethyl)pyridin-2-yl)methyl)imidazo[1,5-a]quinoxaline-8-carboxamide] gave an IC50 in assay [1] of 406 nM. In assay [2], the IC50 worked out at 22 nM and the Selectivity is listed as 18.5.
As for `Nc1nc2ccc(C(=O)N(Cc3ccc(C(F)(F)F)nn3)CC3CC3)cc2n2cncc12` [Example 156, 4-amino-N-(cyclopropylmethyl)-N-((6-(trifluoromethyl)pyridazin-3-yl)methyl)imidazo[1,5-a]quinoxaline-8-carboxamide], the IC50 stood at 1610 nM in assay [1] and 10 nM in assay [2]. For the same compound, in assay [2], the Selectivity came to 160.7.
For `Nc1nc2cc(F)c(C(=O)N(Cc3ccc(C(F)(F)F)cn3)CC3CC3)cc2n2cncc12` [Example 163, 4-amino-N-(cyclopropylmethyl)-7-fluoro-N-((5-(trifluoromethyl)pyridin-2-yl)methyl)imidazo[1,5-a]quinoxaline-8-carboxamide] the same measures were 330 nM, 6 nM and 55.
On to `Cc1cc2nc(N)c3cncn3c2cc1C(=O)N(Cc1ccc(C(F)(F)F)cn1)CC1CC1` [Example 164, 4-amino-N-(cyclopropylmethyl)-7-methyl-N-((5-(trifluoromethyl)pyridin-2-yl)methyl)imidazo[1,5-a]quinoxaline-8-carboxamide], for which, in assay [1], half-maximal inhibition (IC50) was put at 706 nM. In assay [2], this compound gave an IC50 of 8 nM and a Selectivity of 88.3.
In the case of `Nc1nc2cc(Cl)c(C(=O)N(Cc3ccc(C(F)(F)F)cn3)CC3CC3)cc2n2cncc12` [Example 165, 4-amino-7-chloro-N-(cyclopropylmethyl)-N-((5-(trifluoromethyl)pyridin-2-yl)methyl)imidazo[1,5-a]quinoxaline-8-carboxamide], the IC50 came to 358 nM in assay [1] and 11 nM in assay [2]. Further, the Selectivity in assay [2] turned out to be 32.5.
For `Cc1ncc2c(N)nc3ccc(C(=O)N(Cc4ccc(C(F)(F)F)cn4)CC4CC4)cc3n12` [Example 167, 4-amino-N-(cyclopropylmethyl)-1-methyl-N-((5-(trifluoromethyl)pyridin-2-yl)methyl)imidazo[1,5-a]quinoxaline-8-carboxamide], the IC50 in assay [1] was determined as 2710 nM. For the same compound, in assay [2], the IC50 is 74 nM and the Selectivity is on record as 36.6.
For `Cc1ncc2c(N)nc3cc(F)c(C(=O)N(Cc4ccc(C(F)(F)F)cn4)CC4CC4)cc3n12` [Example 168, 4-amino-N-(cyclopropylmethyl)-7-fluoro-1-methyl-N-((5-(trifluoromethyl)pyridin-2-yl)methyl)imidazo[1,5-a]quinoxaline-8-carboxamide] the same measures were 7910 nM, 111 nM and 71.3.
`Cc1cc2nc(N)c3cnc(C)n3c2cc1C(=O)N(Cc1ccc(C(F)(F)F)cn1)CC1CC1` [Example 169, 4-amino-N-(cyclopropylmethyl)-1,7-dimethyl-N-((5-(trifluoromethyl)pyridin-2-yl)methyl)imidazo[1,5-a]quinoxaline-8-carboxamide]: the IC50 in assay [1] amounted to 1880 nM; in assay [2], 35 nM. This compound displayed a Selectivity in assay [2] of 53.6.
In the same order, the values of `CN(C(=O)c1ccc2nc(N)c3cncn3c2c1)C1COCc2cc(C(F)(F)F)ccc21` (stereo not drawn) [Example 179, 4-amino-N-methyl-N-(7-(trifluoromethyl)isochroman-4-yl)imidazo[1,5-a]quinoxaline-8-carboxamide] are 3720 nM, 67 nM and 55.5.
As to `Nc1nc2ccc(C(=O)N(CC3CC3)[C@@H]3COc4nc(C(F)(F)F)ccc43)cc2n2cncc12` [Example 181a, (S)-4-amino-N-(cyclopropylmethyl)-N-(6-(trifluoromethyl)-2,3-dihydrofuro[2,3-b]pyridin-3-yl)imidazo[1,5-a]quinoxaline-8-carboxamide], in assay [1], the IC50 amounted to 5100 nM. Also, in assay [2], the IC50 came to 330 nM and the Selectivity came to 15.5.
On to `Cc1cc2nc(N)c3cncn3c2cc1C(=O)N(c1cnn(C)c1)[C@@H]1COc2nc(C(F)(F)F)ccc21` [Example 206a, (S)-4-amino-7-methyl-N-(1-methyl-1H-pyrazol-4-yl)-N-(6-(trifluoromethyl)-2,3-dihydrofuro[2,3-b]pyridin-3-yl)imidazo[1,5-a]quinoxaline-8-carboxamide], for which the IC50 in assay [1] was 2240 nM; in assay [2] it was 41 nM. The compound further returned a Selectivity in assay [2] of 54.5.
For `Cc1cc2nc(N)c3cncn3c2cc1C(=O)N(c1cnn(C)c1)[C@@H]1COc2cc(C(F)(F)F)ccc21` [Example 207a, (S)-4-amino-7-methyl-N-(1-methyl-1H-pyrazol-4-yl)-N-(6-(trifluoromethyl)-2,3-dihydrobenzofuran-3-yl)imidazo[1,5-a]quinoxaline-8-carboxamide], the midpoint of inhibition in assay [1], the IC50, lay at 70 nM. In addition, in assay [2], half-maximal inhibition (IC50) required 2 nM and the Selectivity was found to be 35.
Consider `CCn1cc(N(C(=O)c2ccc3nc(N)c4cncn4c3c2)[C@@H]2COc3cc(C(F)(F)F)ccc32)cn1` [Example 208a, (S)-4-amino-N-(1-ethyl-1H-pyrazol-4-yl)-N-(6-(trifluoromethyl)-2,3-dihydrobenzofuran-3-yl)imidazo[1,5-a]quinoxaline-8-carboxamide], for which the IC50 in assay [1] amounted to 523 nM; in assay [2], 5 nM. The compound also returned a Selectivity in assay [2] of 104.6.
Regarding `Cn1cc(N(C(=O)c2cc3c(cc2Cl)nc(N)c2cncn23)[C@@H]2COc3cc(C(F)(F)F)ccc32)cn1` [Example 210a, (S)-4-amino-7-chloro-N-(1-methyl-1H-pyrazol-4-yl)-N-(6-(trifluoromethyl)-2,3-dihydrobenzofuran-3-yl)imidazo[1,5-a]quinoxaline-8-carboxamide], the IC50 in assay [1] came out at 59 nM. In assay [2], this compound came in with an IC50 of 1 nM and a Selectivity of 59.
In the same order, the values of `Cn1cc(N(C(=O)c2cc3c(cc2Cl)nc(N)c2cncn23)[C@@H]2COc3nc(C(F)(F)F)ccc32)cn1` [Example 211a, (S)-4-amino-7-chloro-N-(1-methyl-1H-pyrazol-4-yl)-N-(6-(trifluoromethyl)-2,3-dihydrofuro[2,3-b]pyridin-3-yl)imidazo[1,5-a]quinoxaline-8-carboxamide] are 1330 nM, 19 nM and 69.9.
For the compound `Nc1nc2cc(Cl)c(C(=O)N(Cc3ccc(C(F)(F)F)nn3)CC3CC3)cc2n2cncc12` [Example 212, 4-amino-7-chloro-N-(cyclopropylmethyl)-N-((6-(trifluoromethyl)pyridazin-3-yl)methyl)imidazo[1,5-a]quinoxaline-8-carboxamide], the IC50 is 383 nM in assay [1] and 8 nM in assay [2]. This compound also gave a Selectivity in assay [2] of 47.9.

In general, IC50 refers to the point on the concentration scale where inhibition reaches its midpoint.
